Measured values reported in PMC5031696, “Synthesis, Biodistribution and In vitro Evaluation of Brain Permeable High Affinity Type 2 Cannabinoid Receptor Agonists [^11C]MA2 and [^18F]MA3” (Frontiers in Neuroscience, 2016).
“And” between values parts separate entries of the source, which are not always exact repeats. Equal values may be shown once.

How the values were obtained:
[1] = parameters: method as in Horti et al., 2010; details: rat brain, 2 min post injection; ref Horti et al., 2010; cited from earlier work
[2] = biodistribution studies in male NMRI mice; type: in vivo, mouse; details: NMRI mice; for % ID bladder + urine / % ID blood / SUV blood / % ID brain / SUV brain / % ID heart / SUV heart / % ID intestines / % ID kidneys / SUV kidneys / % ID liver / SUV liver / % ID lungs / SUV lungs / % ID pancreas / SUV pancreas / % ID spleen / SUV spleen / % ID stomach: i.v.
Experimental: The tissue distribution and kinetics of [^11C]MA2 and [^18F]MA3 were studied in male NMRI mice at 2, 10, 30, and 60 min post injection of the tracer. The results of the biodistribution studies are presented in Table 1 ([^11C]MA2) and Table 2 ([^18F]MA3) as percentage of injected dose (% ID) and standard uptake value (SUV).
The biodistribution of [^11C]MA2 and [^18F]MA3 was studied in normal male Naval Medical Research Institute (NMRI) mice. A solution of HPLC-purified [^11C]MA2 or [^18F]MA3 was diluted with saline to obtain an ethanol concentration < 10%. Mice were anesthetized with isoflurane (2% in oxygen) and injected intravenously (i.v.) with [^11C]MA2 (~ 9.25 MBq) or [^18F]MA3 (~ 0.92 MBq) via a lateral tail vein. The mice were sacrificed by decapitation at 2, and 60 min post injection (for [^11C]MA2, n = 4) and at 2, 10, 30, or 60 min post injection (for [^18F]MA3, n = 3 or 4 per time point) and dissected. Blood, organs, and other body parts were collected in tared tubes and the radioactivity in each tube was measured using an automated gamma counter. The tubes containing selected organs and blood were weighed. For calculation of total radioactivity in blood, blood mass was assumed to be 7% of the body mass (Fritzberg et al., [1982]). Quantitative data are expressed as mean ± standard deviation (SD). Means were compared using an unpaired two-tailed student t-test. Values were considered statistically significant for P ≤ 0.05.

[3] = plasma radiometabolite analysis; type: in vivo; details: mouse plasma, average of 2 assays
Experimental: The fraction of radiometabolites in mouse plasma at 2 and 30 min after injection of the tracer was determined by RP-HPLC analysis to investigate the in vivo stability of [^11C]MA2. […] At 2 min post injection of [^11C]MA2, 88% (n = 2) of the recovered radioactivity was assigned to the intact parent tracer. The percentage of intact [^11C]MA2 decreased to 34% at 30 min post injection of the tracer. All detected radiometabolites were more polar than the intact tracer.
After i.v. administration of [^11C]MA2 (~ 9.25 MBq) via a lateral tail vein to anesthetized NMRI mice (isoflurane 2% in oxygen), the mice were decapitated at 2 or 30 min post injection (n = 2 per time point). […] The isolated plasma was spiked with authentic non-radioactive MA2 (15 μL of 1 mg/mL solution in CH3CN) and analyzed by RP-HPLC on a Chromolith RP C18 column (3 mm x 100 mm; Merck) eluted with gradient mixtures of CH3CN (A) and 0.05 M NaOAc pH 5.5 (B) (0–5 min: Isocratic 100% B, flow rate of 0.5 mL/min; 5–10 min: Linear gradient 100 B to 10% B, flow rate of 1 mL/min; 10–13 min: Isocratic 10% B, flow rate of 1 mL/min; 13–13.1 min: Linear gradient 10 B to 100% B, flow rate of 0.5 mL/min; 13.1–15 min: Isocratic 100% B, flow rate of 0.5 mL/min). […] The radioactivity in all fractions was measured using an automated gamma counter. […]

[4] = test system: CB2; parameters: method as in Evens et al., 2011; details: ref Evens et al., 2011; cited from earlier work

**Q.** For Cc1sc(=NC(=O)C2C(C)(C)C2(C)C)n(CCO[11CH3])c1C [[^11C]A-836339], which SUV in brain [1] is on record?
**A.** Its SUV in brain is ~ 0.5.

**Q.** Which results are given for [11CH3]Oc1ccc2ncc(NCCCc3nc(-c4ccc(F)cc4Cl)no3)cc2c1 [[^11C]MA2]?
**A.** accumulation in the spleen [2]: no accumulation; % ID bladder + urine ([2]; 2 min post injection): 0.2 ± 0.1 % ID; % ID bladder + urine ([2]; 60 min post injection): 4.5 % ID and 4.5 ± 1.0 % ID; % ID blood ([2]; 2 min post injection): 5.8 ± 0.4 % ID; SUV blood ([2]; 2 min post injection): 0.8 ± 0.1; % ID blood ([2]; 60 min post injection): 0.7 ± 0.1 % ID; SUV blood ([2]; 60 min post injection): 0.1 ± 0.0; % ID brain ([2]; 2 min post injection): 1.6 % ID and 1.6 ± 0.5 % ID; SUV brain ([2]; 2 min post injection): 1.8 ± 0.2; % ID brain ([2]; 60 min post injection): 0.1 ± 0.0 % ID; SUV brain ([2]; 60 min post injection): 0.1 ± 0.0; blood % ID 2 min/60 min ratio ([2]; clearance from blood): 8.6; % ID heart ([2]; 2 min post injection): 1.4 ± 0.4 % ID; SUV heart ([2]; 2 min post injection): 3.3 ± 0.6; % ID heart ([2]; 60 min post injection): 0.1 ± 0.0 % ID; SUV heart ([2]; 60 min post injection): 0.1 ± 0.0; % ID intestines ([2]; 2 min post injection): 9.7 ± 0.4 % ID; % ID intestines ([2]; 60 min post injection): 63.8 % ID and 63.8 ± 2.9 % ID; % ID kidneys ([2]; 2 min post injection): 8.3 ± 1.6 % ID; SUV kidneys ([2]; 2 min post injection): 5.1 ± 0.7; % ID kidneys ([2]; 60 min post injection): 1.0 ± 0.3 % ID; SUV kidneys ([2]; 60 min post injection): 0.6 ± 0.1; % ID liver ([2]; 2 min post injection): 28.3 ± 2.9 % ID; SUV liver ([2]; 2 min post injection): 6.0 ± 0.1; % ID liver ([2]; 60 min post injection): 9.1 ± 3.0 % ID; SUV liver ([2]; 60 min post injection): 2.0 and 2.0 ± 0.5; % ID lungs ([2]; 2 min post injection): 1.4 ± 0.3 % ID; SUV lungs ([2]; 2 min post injection): 2.3 ± 0.4; % ID lungs ([2]; 60 min post injection): 0.1 ± 0.0 % ID; SUV lungs ([2]; 60 min post injection): 0.2 ± 0.0; % ID pancreas ([2]; 2 min post injection): 1.6 ± 0.8 % ID; SUV pancreas ([2]; 2 min post injection): 2.2 ± 1.0; % ID pancreas ([2]; 60 min post injection): 0.2 ± 0.1 % ID; SUV pancreas ([2]; 60 min post injection): 0.3 ± 0.0; % ID spleen ([2]; 2 min post injection): 0.5 ± 0.2 % ID; SUV spleen ([2]; 2 min post injection): 2.0 ± 0.2; % ID spleen ([2]; 60 min post injection): 0.03 ± 0.01 % ID; SUV spleen ([2]; 60 min post injection): 0.2 ± 0.0; % ID stomach ([2]; 2 min post injection): 1.3 ± 0.3 % ID; % ID stomach ([2]; 60 min post injection): 4.2 ± 3.9 % ID; brain % ID 2 min/60 min ratio ([2]; wash-out from brain): 18.4; % of intact tracer in blood plasma ([3]; 2 min post injection): 88%; % of intact tracer in blood plasma ([3]; 30 min post injection): 34%

**Q.** Which “binding affinity for CB2” value [4] does the source give for Cc1c(CCN2CCOCC2)c2cc(OCC[18F])ccc2n1C(=O)c1cccc(Cl)c1Cl [[^18F]FE-GW405833] here?
**A.** Its value is 27 nM.
